Assay results as given in ChEMBL document CHEMBL1914417 (Bioorg Med Chem Lett, 2011).
The source made the active and inactive calls. No cut-off for these calls is given here.

Experiments:
Format in all cases: functional, cell-based
[1] = target: T1, Muscarinic acetylcholine receptor M1 (Rattus norvegicus) (UniProt P08482); experiment: Agonist activity at rat muscarinic M1 receptor expressed in CHO cells at 10 uM
T1 sequence (whole entry): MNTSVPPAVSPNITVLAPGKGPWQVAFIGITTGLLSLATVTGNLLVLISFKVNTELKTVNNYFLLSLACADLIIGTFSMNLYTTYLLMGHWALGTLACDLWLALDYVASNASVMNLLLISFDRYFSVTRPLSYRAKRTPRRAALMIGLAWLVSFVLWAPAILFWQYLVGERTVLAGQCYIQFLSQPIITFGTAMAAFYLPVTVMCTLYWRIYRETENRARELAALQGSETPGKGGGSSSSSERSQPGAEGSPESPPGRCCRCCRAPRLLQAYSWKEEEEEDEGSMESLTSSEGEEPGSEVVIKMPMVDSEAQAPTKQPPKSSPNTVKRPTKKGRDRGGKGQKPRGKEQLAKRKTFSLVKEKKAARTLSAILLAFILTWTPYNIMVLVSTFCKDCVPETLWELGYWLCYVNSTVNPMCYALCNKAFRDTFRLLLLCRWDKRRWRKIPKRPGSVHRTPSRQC

[2] = target: T2, Muscarinic acetylcholine receptor M4 (Rattus norvegicus, UniProt P08485); experiment: Agonist activity at rat muscarinic M4 receptor expressed in CHO cells
T2 sequence (P08485 whole entry): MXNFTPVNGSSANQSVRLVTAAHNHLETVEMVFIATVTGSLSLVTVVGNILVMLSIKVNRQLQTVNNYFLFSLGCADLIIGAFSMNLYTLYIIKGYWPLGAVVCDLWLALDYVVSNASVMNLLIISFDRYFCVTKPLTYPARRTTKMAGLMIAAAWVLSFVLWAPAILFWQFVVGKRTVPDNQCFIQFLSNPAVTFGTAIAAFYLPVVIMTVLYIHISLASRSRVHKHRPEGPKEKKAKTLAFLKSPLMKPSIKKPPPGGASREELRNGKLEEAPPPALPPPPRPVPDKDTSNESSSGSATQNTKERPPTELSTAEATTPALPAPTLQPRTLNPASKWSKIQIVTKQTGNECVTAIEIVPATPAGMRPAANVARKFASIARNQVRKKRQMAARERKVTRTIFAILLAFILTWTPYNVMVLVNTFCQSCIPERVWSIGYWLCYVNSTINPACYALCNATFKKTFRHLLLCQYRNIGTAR

[3] = target: T1, Muscarinic acetylcholine receptor M1 (Rattus norvegicus); experiment: Agonist activity at rat muscarinic M1 receptor expressed in CHO cells relative to acetylcholine
[4] = target: T3, Muscarinic acetylcholine receptor M2 (Rattus norvegicus, UniProt P10980); experiment: Agonist activity at rat muscarinic M2 receptor expressed in CHO cells
T3 sequence (P10980 whole entry): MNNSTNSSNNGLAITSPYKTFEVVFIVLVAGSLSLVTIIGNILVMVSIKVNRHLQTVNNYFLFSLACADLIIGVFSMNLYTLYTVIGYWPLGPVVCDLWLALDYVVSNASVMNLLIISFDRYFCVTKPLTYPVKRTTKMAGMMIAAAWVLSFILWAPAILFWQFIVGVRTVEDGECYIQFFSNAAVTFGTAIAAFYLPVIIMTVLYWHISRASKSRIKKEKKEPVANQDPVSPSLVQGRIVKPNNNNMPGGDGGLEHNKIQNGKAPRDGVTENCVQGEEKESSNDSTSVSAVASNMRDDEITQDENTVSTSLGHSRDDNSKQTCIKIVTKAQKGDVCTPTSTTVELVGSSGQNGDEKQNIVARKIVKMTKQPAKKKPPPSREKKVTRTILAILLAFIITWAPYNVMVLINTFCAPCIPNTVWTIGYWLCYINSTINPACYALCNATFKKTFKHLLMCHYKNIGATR

[5] = target: Muscarinic acetylcholine receptor M3 (Rattus norvegicus, UniProt P08483); experiment: Agonist activity at rat muscarinic M3 receptor expressed in CHO cells
[6] = target: T4, Muscarinic acetylcholine receptor M5 (Rattus norvegicus, UniProt P08911); experiment: Agonist activity at rat muscarinic M5 receptor expressed in CHO cells
T4 sequence (P08911 whole entry): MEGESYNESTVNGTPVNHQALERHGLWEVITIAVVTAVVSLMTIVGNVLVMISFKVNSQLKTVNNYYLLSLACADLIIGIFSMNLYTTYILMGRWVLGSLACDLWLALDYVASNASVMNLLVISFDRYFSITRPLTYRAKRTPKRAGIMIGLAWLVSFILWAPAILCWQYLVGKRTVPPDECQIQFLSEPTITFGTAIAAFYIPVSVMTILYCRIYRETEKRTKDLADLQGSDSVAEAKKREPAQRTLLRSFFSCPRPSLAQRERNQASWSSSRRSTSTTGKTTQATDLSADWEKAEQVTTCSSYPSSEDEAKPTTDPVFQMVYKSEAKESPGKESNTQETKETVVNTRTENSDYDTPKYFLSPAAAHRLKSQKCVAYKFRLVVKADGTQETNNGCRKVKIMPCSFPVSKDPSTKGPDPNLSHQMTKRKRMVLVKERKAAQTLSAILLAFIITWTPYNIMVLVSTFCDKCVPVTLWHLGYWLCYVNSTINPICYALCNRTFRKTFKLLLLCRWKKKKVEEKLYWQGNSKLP

[7] = target: T5, Muscarinic acetylcholine receptor M1 (Rattus norvegicus, UniProt P08482); experiment: Agonist activity at rat muscarinic M1 receptor expressed in CHO cells
T5 sequence (P08482 whole entry): T1 sequence (whole entry)

Sequence of Muscarinic acetylcholine receptor M3 (P08483 whole entry): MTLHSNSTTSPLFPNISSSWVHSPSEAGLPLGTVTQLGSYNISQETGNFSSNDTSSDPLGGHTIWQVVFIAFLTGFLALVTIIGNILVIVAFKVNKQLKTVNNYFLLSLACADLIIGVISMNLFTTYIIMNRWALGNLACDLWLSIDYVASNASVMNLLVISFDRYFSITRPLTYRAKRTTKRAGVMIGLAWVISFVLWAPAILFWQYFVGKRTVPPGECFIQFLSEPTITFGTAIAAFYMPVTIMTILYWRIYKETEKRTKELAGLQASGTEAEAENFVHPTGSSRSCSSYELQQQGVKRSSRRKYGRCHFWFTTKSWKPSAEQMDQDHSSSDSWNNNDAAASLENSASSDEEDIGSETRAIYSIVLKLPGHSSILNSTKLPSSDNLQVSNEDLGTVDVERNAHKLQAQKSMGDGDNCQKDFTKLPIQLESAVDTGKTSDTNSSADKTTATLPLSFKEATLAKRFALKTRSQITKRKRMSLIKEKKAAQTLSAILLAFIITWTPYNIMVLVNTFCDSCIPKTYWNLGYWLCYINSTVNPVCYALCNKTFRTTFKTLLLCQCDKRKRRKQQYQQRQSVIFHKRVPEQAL

Row | SMILES | activation [1] | EC50 [2] [µM] | Emax [3] [%] | EC50 [4] [µM] | EC50 [5] [µM] | EC50 [6] [µM] | EC50 [7] [µM]
1 | CCOC(=O)N1CCC(N2CCC[C@H](NC(=O)c3ccccc3C)C2)CC1 | inactive | – | – | – | – | – | –
2 | CCOC(=O)N1CCC(N2CC[C@H](NC(=O)c3ccccc3C)C2)CC1 | < 30% | – | – | – | – | – | –
3 | CCOC(=O)N1CCC(N2C[C@@H]3C[C@H]2CN3C(=O)c2ccccc2C)CC1 | < 30% | – | – | – | – | – | –
4 | CCOC(=O)N1CCC(N2CC[C@@H](NC(=O)c3ccccc3C)C2)CC1 | < 30% | – | – | – | – | – | –
5 | CCOC(=O)N1CCC(N2C[C@H]3CN(C(=O)c4ccccc4C)C[C@H]3C2)CC1 | < 30% | – | – | – | – | – | –
6 | CCOC(=O)N1CCC(N2CCC[C@@H](NC(=O)c3cccs3)C2)CC1 | – | > 10 | 61 | > 10 | > 10 | > 10 | –
7 | CCOC(=O)N1CCC(N2CCC[C@@H](NC(=O)c3cccc(F)c3)C2)CC1 | – | > 10 | 92 | > 10 | > 10 | > 10 | 0.14
8 | CCOC(=O)N1CCC(N2CCC[C@@H](NC(=O)c3ccc(C)cc3)C2)CC1 | – | > 10 | 41 | > 10 | > 10 | > 10 | –
9 | CCOC(=O)N1CCC(N2CCC[C@@H](NC(=O)c3ccc(F)cc3C)C2)CC1 | – | > 10 | 77 | > 10 | > 10 | > 10 | 0.06
10 | CCOC(=O)N1CCC(N2CCC[C@@H](NC(=O)c3ccc(OC)cc3)C2)CC1 | – | > 10 | 63 | > 10 | > 10 | > 10 | –
11 | CCOC(=O)N1CCC(N2CCC[C@@H](NC(=O)c3ccccc3Cl)C2)CC1 | – | > 10 | 57 | > 10 | > 10 | > 10 | –
12 | CCOC(=O)N1CCC(N2CCC[C@@H](NC(=O)C3CCCCC3)C2)CC1 | – | > 10 | 44 | > 10 | > 10 | > 10 | –
13 | CCOC(=O)N1CCC(N2CCC[C@@H](NC(=O)c3cccc(OC)c3)C2)CC1 | – | > 10 | 91 | > 10 | > 10 | > 10 | 0.25
14 | CCOC(=O)N1CCC(N2CCC[C@@H](NC(=O)c3ccc(F)c(F)c3)C2)CC1 | – | > 10 | 84 | > 10 | > 10 | > 10 | –
15 | CCOC(=O)N1CCC(N2CCC[C@@H](NC(=O)C3CCCC3)C2)CC1 | – | > 10 | 35 | > 10 | > 10 | > 10 | –
16 | CCOC(=O)N1CCC(N[C@@H]2CCN(C(=O)c3ccccc3C)C2)CC1 | < 30% | – | – | – | – | – | –
17 | CCOC(=O)N1CCC(N2CCN(C(=O)c3ccccc3C)CC2)CC1 | < 30% | – | – | – | – | – | –
18 | CCOC(=O)N1CCC(N2CCC[C@@H](NC(=O)c3ccccc3)C2)CC1 | – | > 10 | 91 | > 10 | > 10 | > 10 | 0.13
19 | CCOC(=O)N1CCC(N[C@H]2CCN(C(=O)c3ccccc3C)C2)CC1 | < 30% | – | – | – | – | – | –
